Values quoted from earlier work as cited in publication PMC10425210 (The Journal of Clinical Investigation, 2023).

What was measured:
[1] = design: method as in PMID 29008798; conditions: cited from earlier work
SHIV109CP3 = test system: SHIV109CP3; design: method as in PMID 31175822; conditions: cited from earlier work

For C#C[C@]1(CO)O[C@@H](n2cnc3c(N)nc(F)nc32)C[C@@H]1O [islatravir], the “adverse finding during clinical development” value [1] is given as “unanticipated lymphopenia” and the prevention of infection (SHIV109CP3) is given as “proven efficacy at preventing infection”.
